From patent publication EP1285920A1, “C10 Ester sustituted taxanes as antitumor agents” (Florida State University Research Foundation, Inc., priority 2001, dated 2003)
Read-outs that look alike come from different tables or passages of the source.

Assays:
A2780 ovarian carcinoma = details: for Mean Score: tumor scoring system
Method: Dosing was initiated on Day 1. […] Taxotere was given i.v. on a qd x 1 schedule at a dose of 70 mg/kg. […] The study was terminated on Day 60. Treatment groups are detailed in Table 7.

SKMES lung carcinoma = assay: In vivo evaluation of oral administration against SKMES human lung carcinoma xenograft (Example 21); details: single oral bolus Day 1
Method: Female Nu/Nu mice (6-8 weeks of age; implanted with 1 mm^3 SKMES lung carcinoma fragments in the flank) were sorted into treatment groups of six mice each. […] Treatments were administered as a single oral bolus on Day 1, and the study was terminated on Day 60.
A complete response is obtained if the tumor is not palpable at the end of the study.
The total response rate is defined as the percentage of evaluable animals (excluding deaths due to procedure or toxicity) in a group that experience complete or partial responses at the termination of the study.

[1] = test system: Panc-1 pancreatic carcinoma; assay: In vivo evaluation against Panc-1 human pancreatic carcinoma (Example 17)
Method: The dosing volume was 0.3 ml per 20 g mouse.
Female NCr-nude mice were implanted subcutaneously with 1 mm^3 Panc-1 pancreatic carcinoma fragments in the flank and sorted into treatment groups of six mice each. […] Dosing was initiated on Day 1. The antitumor compounds were given i.v. at an estimated maximum tolerated dose (MTD) appropriate for each agent on a qd x 1 schedule (single administration of compound). […] The vehicle was administered i.v. to control mice in Group 1 on the qd x 1 schedule. The study was terminated on Day 60.
The mean days of survival is the number of days after which a neoplasm reached a size of 1.5 g and the animal was euthanized. A complete response is obtained if the tumor shrinks to a size smaller than its size on Day 1 of the study.

A375 melanoma = details: for Complete Response / Partial Response / Stable Disease / Survivors / Toxic Deaths: number of mice; for Mean Score: tumor scoring system
Method: Dosing was initiated on Day 1. […] Taxotere was given i.v. on a qd x 1 schedule at a dose of 70 mg/kg. […] The study was terminated on Day 60. Treatment groups are detailed in Table 9.

[2] = number of mice, Taxol i.p. qd x 5, 15 mg/kg daily, 5 mice
[3] = number of mice, i.v. qd x 1 at estimated MTD (Taxol 24 mg/kg, Taxotere 70 mg/kg, 0983 72.6 mg/kg), 5 mice/group (Taxotere 6), Day 60
[4] = number of mice, mg/kg: Taxol 40, 0687 228, 0503 73, 6 mice/group, Day 60
[5] = number of mice, i.v. qd x 1, mg/kg: Taxol 36, 0499 77, 0503 72.6, 0670 123.1, 0706 107.6, 0838 72.6, 0854 76.9, 6 mice/group, Day 60
[6] = Taxol i.p. qd x 5, 18 mg/kg daily, 6 mice
[7] = i.v. qd x 1 at estimated MTD (Taxol 24 mg/kg, Taxotere 70 mg/kg), 6 mice/group (Taxotere 7)
[8] = i.v. qd x 1 at estimated MTD (Taxol 24 mg/kg, Taxotere 70 mg/kg), 6 mice/group (Taxotere 7), Day 60

With `CC(=O)O[C@H]1C(=O)[C@@]2(C)[C@H]([C@H](OC(=O)c3ccccc3)[C@]3(O)C[C@H](OC(=O)[C@H](O)[C@@H](NC(=O)c4ccccc4)c4ccccc4)C(C)=C1C3(C)C)[C@]1(OC(C)=O)CO[C@@H]1C[C@@H]2O` [Taxol, paclitaxel, reference compound] the “antitumor activity” value (A2780 ovarian carcinoma; A2780, i.v. qd x 1) was “moderately efficacious”, the “survival extension compared to Group 1 controls” value (A2780 ovarian carcinoma; A2780, i.v. qd x 1) was 87% and the MDS (A2780 ovarian carcinoma; A2780, i.v. qd x 1 (compounds estimated MTD; Taxol 24 mg/kg split; Taxotere 70 mg/kg), days until tumor 2.0 g, ended Day 60) was 21.9 days. The Stable Disease (A2780 ovarian carcinoma; A2780, i.v. qd x 1, five mice per group) was “One”, the “MDS (n)” value (A2780 ovarian carcinoma; mean days of survival until neoplasm reached 2.0 g, i.v. qd x 1 at estimated MTD (Taxol 24 mg/kg, Taxotere 70 mg/kg, 0983 72.6 mg/kg), 5 mice/group (Taxotere 6), terminated Day 60) was 21.9 ± 5.5 (5) days and the “Complete Response” value (A2780 ovarian carcinoma; [2]) was 0. The “Partial Respons” value (A2780 ovarian carcinoma; [2]) was 0, the “Stable Disease” value (A2780 ovarian carcinoma; [2]) was 0 and the Survivors (A2780 ovarian carcinoma; [2]) was 0. For the same compound, the “Toxic Deaths” value (A2780 ovarian carcinoma; [2]) was 4, the “Toxic Deaths” value (A2780 ovarian carcinoma; number of mice, i.v. qd x 1 at estimated MTD (Taxol 24 mg/kg, Taxotere 70 mg/kg, 0983 72.6 mg/kg), 5 mice/group (Taxotere 6)) was 0 and the “Complete Response” value (A2780 ovarian carcinoma; [3]) was 0. The “Partial Respons” value (A2780 ovarian carcinoma; [3]) was 0, the “Stable Disease” value (A2780 ovarian carcinoma; [3]) was 0 and the Survivors (A2780 ovarian carcinoma; [3]) was 1. For the same compound, the “Mean Score” value (A2780 ovarian carcinoma; Taxol i.p. qd x 5, 15 mg/kg daily, 5 mice) was 0.6 ± 0.6, the “Mean Score” value (A2780 ovarian carcinoma; i.v. qd x 1 at estimated MTD (Taxol 24 mg/kg, Taxotere 70 mg/kg, 0983 72.6 mg/kg), 5 mice/group (Taxotere 6)) was 1.8 ± 0.4 and the “antitumor activity” value (SKMES lung carcinoma; SKMES, 0687 228 mg/kg, 0503 73 mg/kg, Taxol 40 mg/kg) was “no statistically significant response”. For the same compound, the “% Total Response” value (SKMES lung carcinoma; complete or partial responses among evaluable animals, mg/kg: Taxol 40, 0687 228, 0503 73) was 0%, the “MDS (n)” value (SKMES lung carcinoma; mean days of survival until neoplasm reached 2.0 g, mg/kg: Taxol 40, 0687 228, 0503 73, 6 mice/group, terminated Day 60) was 13.2 ± 1.4 (6) days and the “Toxic Deaths” value (SKMES lung carcinoma; number of mice, mg/kg: Taxol 40, 0687 228, 0503 73, 6 mice/group) was 0. The “Complete Response” value (SKMES lung carcinoma; [4]) was 0, the “Partial Response” value (SKMES lung carcinoma; [4]) was 0 and the “Stable Disease” value (SKMES lung carcinoma; [4]) was 0. For the same compound, the Survivors (SKMES lung carcinoma; [4]) was 0, the “survival extension compared to Group 1 controls” value ([1]; Panc-1 (Example 17), Taxol 36 mg/kg i.v. qd x 1, three mice) was 126% and the Toxic Deaths ([1]; Panc-1 (Example 17), i.v. qd x 1, six mice per group) was “Three”. The “Toxic Deaths” value ([1]; number of mice, i.v. qd x 1, mg/kg: Taxol 36, 0499 77, 0503 72.6, 0670 123.1, 0706 107.6, 0838 72.6, 0854 76.9, 6 mice/group) was 3, the “Complete Response” value [1, 5] was 0 and the “Partial Response” value [1, 5] was 0. The “Stable Disease” value [1, 5] was 0, the Survivors [1, 5] was 0 and the “Mean Score” value ([1]; tumor scoring system, i.v. qd x 1, mg/kg: Taxol 36, 0499 77, 0503 72.6, 0670 123.1, 0706 107.6, 0838 72.6, 0854 76.9, 6 mice/group) was 1.6 ± 0.7. For the same compound, the “toxicity” value (A375 melanoma; A375, Taxol i.p. 18 mg/kg qd x 5) was “highly toxic”, the “animals died of toxicity” value (A375 melanoma; A375, Taxol i.p. 18 mg/kg qd x 5, six animals) was “six” and the “survival extension compared to Group 1 controls” value (A375 melanoma; A375, i.v. qd x 1) was 26%. For the same compound, the MDS (A375 melanoma; A375, i.v. qd x 1 (Taxol 24 mg/kg split; Taxotere 70 mg/kg), days until tumor 2.0 g, ended Day 60) was 18.1 days, the “MDS (n)” value (A375 melanoma; mean days of survival until neoplasm reached 2.0 g, i.v. qd x 1 at estimated MTD (Taxol 24 mg/kg, Taxotere 70 mg/kg), 6 mice/group (Taxotere 7), terminated Day 60) was 18.1 ± 0.6 (4) days and the “Complete Response” value (A375 melanoma; [6]) was 0. For the same compound, the “Partial Response” value (A375 melanoma; [6]) was 0, the “Stable Disease” value (A375 melanoma; [6]) was 0 and the Survivors (A375 melanoma; [6]) was 0. For the same compound, the “Toxic Deaths” value (A375 melanoma; [6]) was 6, the “Toxic Deaths” value (A375 melanoma; [7]) was 2 and the “Complete Response” value (A375 melanoma; [8]) was 0. For the same compound, the “Partial Response” value (A375 melanoma; [8]) was 0, the “Stable Disease” value (A375 melanoma; [8]) was 0 and the Survivors (A375 melanoma; [8]) was 0. The “Mean Score” value (A375 melanoma; [6]) was 0 ± 0 and the “Mean Score” value (A375 melanoma; [7]) was 0.8 ± 0.3.
